For test [1], the system named is Echinochloa oryzicola. Kind of test: Light dependent herbicidal activity against Echinochloa oryzicola seedlings assessed as inhibition of seedlings growth at 10 ppm measured after 6 days post compound application under greenhouse conditions at 25 +/- 2 degC with day light. It counts as functional, organism-based.
Test [2] concerns Echinochloa oryzicola. Kind of test: Herbicidal activity against Echinochloa oryzicola seedlings assessed as induction of seedlings damage measured after 3 weeks post compound application through paddy water. In kind it is functional.
For test [3], the system named is Echinochloa oryzicola. The test is described as follows: Potency index, ratio of ED90 for chlomethoxyfen to ED90 for test compound for herbicidal activity against Echinochloa oryzicola seedling. In kind it is functional.
Test [4] deals with Echinochloa oryzicola. The test is described as follows: Light dependent herbicidal activity against Echinochloa oryzicola seedlings assessed as inhibition of seedlings growth at 10 ppm measured after 6 days post compound application under greenhouse conditions at 25 +/- 2 degC under dark conditions. It counts as functional, organism-based.

Activity calls are given as the source filed them. The calls are words filed in the database; no cut-off is given here.

With `CC(Cl)/C=C/C(=O)N(Cc1ccc(C(F)(F)F)cc1)CC(C)C` (racemic), the “growth inhibition (GI)” value in test [1] was “Active”. Further, the ED90 in test [2] is reported as 31 gAi/ha.

On to `CC(Cl)/C=C/C(=O)N(Cc1ccc(C(N)=O)cc1)CC(C)C` (racemic), for which, in test [1], the “growth inhibition (GI)” value was “Active”. In addition, the ED90 in test [2] came to 500 gAi/ha.

Turning to `CC(Cl)/C=C/C(=O)N(Cc1ccc(C(=O)O)cc1)CC(C)C` (racemic), the “growth inhibition (GI)” value in test [1] was “Active”. Moreover, the ED90 in test [2] is reported as greater than 5000 gAi/ha.

Turning to `COc1cc(CN(CC(C)C)C(=O)/C=C/C(C)Cl)ccc1C#N` (racemic), the “growth inhibition (GI)” value in test [1] was “Active”. In addition, in test [2], the ED90 is 16 gAi/ha.

With `CC(Cl)/C=C/C(=O)N(CCC(C)C)Cc1ccc(Cl)cc1` (racemic), in test [1], the “growth inhibition (GI)” value was “Active”. In addition, the ED90 in test [2] is reported as less than 16 gAi/ha.

In the case of `CCOc1cc(Oc2ccc(C(F)(F)F)cc2Cl)ccc1[N+](=O)[O-]`, the “growth inhibition (GI)” value in test [1] was “Active”.

With `CCOC(=O)c1cc(CN(CC(C)C)C(=O)/C=C/C(C)Cl)ccc1Cl` (racemic), the “growth inhibition (GI)” value in test [1] was “Active”. For the same compound, the ED90 in test [2] is on record as less than 16 gAi/ha.

Regarding `CCCOc1ccc(Cl)c(CN(CC(C)C)C(=O)/C=C/C(C)Cl)c1` (racemic), in test [1], the “growth inhibition (GI)” value is “Active”. In addition, the ED90 in test [2] stood at 62 gAi/ha.

Regarding `CC(Cl)/C=C/C(=O)N(Cc1cc(OS(C)(=O)=O)ccc1Cl)CC(C)C` (racemic), in test [1], the “growth inhibition (GI)” value is “Active”. Moreover, the ED90 in test [2] came to 31 gAi/ha.

With `COc1cc(CN(CC(C)C)C(=O)/C=C/C(C)Cl)ccc1Cl` (racemic), the “growth inhibition (GI)” value in test [1] is “Active”. Besides, the ED90 in test [2] was 16 gAi/ha.

As for `CC(Cl)/C=C/C(=O)N(Cc1cc(Cl)c(C#N)cc1Br)CC(C)C` (racemic), the “growth inhibition (GI)” value in test [1] is “Active”. In addition, the ED90 in test [2] was less than 16 gAi/ha.

`CC(Cl)/C=C/C(=O)N(Cc1ccc(Cl)cc1)C1CCCCCC1` (racemic): in test [1], the “growth inhibition (GI)” value was “Active”. Also, the ED90 in test [2] turned out to be 62 gAi/ha.

On to `COc1cc(Cl)ccc1CN(CC(C)C)C(=O)/C=C/C(C)Cl` (racemic), for which the “growth inhibition (GI)” value in test [1] is “Active”. For the same compound, the ED90 in test [2] was found to be 500 gAi/ha.

Consider `CCCCCCCCC(Br)/C=C/C(=O)N(Cc1ccc(Cl)cc1)CC(C)C` (racemic), for which, in test [2], the ED90 was greater than 5000 gAi/ha.

For `CCCOc1cc(CN(CC(C)C)C(=O)/C=C/C(C)Cl)ccc1Cl` (racemic), the “growth inhibition (GI)” value in test [1] was “Active”. Moreover, the ED90 in test [2] is recorded as 31 gAi/ha.

Turning to `CC(Cl)/C=C/C(=O)N(Cc1ccc(Cl)cc1)C(C)C` (racemic), the “growth inhibition (GI)” value in test [1] was “Active”. For the same compound, in test [2], the ED90 is listed as 250 gAi/ha.

For `CC(Cl)/C=C/C(=O)N(C)Cc1ccc(Cl)cc1` (racemic), the “growth inhibition (GI)” value in test [1] was “Active”. The ED90 in test [2] came out at 2000 gAi/ha.

As for `CCC(Cl)/C=C/C(=O)N(Cc1ccc(Cl)cc1)CC(C)C` (racemic), in test [2], the ED90 is reported as 16 gAi/ha.

Turning to `CSc1ccc(CN(CC(C)C)C(=O)/C=C/C(C)Cl)cc1` (racemic), in test [1], the “growth inhibition (GI)” value is “Active”. In addition, in test [2], the ED90 came out at 250 gAi/ha.

Regarding `CCCCCCCCN(Cc1ccc(Cl)cc1)C(=O)/C=C/C(C)Cl` (racemic), the “growth inhibition (GI)” value in test [1] is “Active”. For the same compound, in test [2], the ED90 is on record as greater than 5000 gAi/ha.

`COc1ccc(Cl)cc1CN(CC(C)C)C(=O)/C=C/C(C)Cl` (racemic): the “growth inhibition (GI)” value in test [1] is “Active”. For the same compound, the ED90 in test [2] is listed as greater than 1000 gAi/ha.

On to `CC(=O)Nc1ccc(CN(CC(C)C)C(=O)/C=C/C(C)Cl)cc1` (racemic), for which the “growth inhibition (GI)” value in test [1] was “Active”. Also, in test [2], the ED90 is recorded as greater than 5000 gAi/ha.

On to `CCCC(Br)/C=C/C(=O)N(Cc1ccc(Cl)cc1)CC(C)C` (racemic), for which the ED90 in test [2] was found to be 250 gAi/ha.

With `CC(Cl)/C=C/C(=O)N(Cc1ccc(Cl)cc1)CC(C)C` (racemic), in test [1], the “growth inhibition (GI)” value was “Active”. Further, the ED90 in test [2] is recorded as 16 gAi/ha. Also, the Ratio in test [3] stood at 10.

In the case of `CC(Cl)/C=C/C(=O)N(Cc1cccc(C#N)c1)CC(C)C` (racemic), the “growth inhibition (GI)” value in test [1] was “Active”. In addition, the ED90 in test [2] was 500 gAi/ha.

With `CC(Cl)/C=C/C(=O)N(Cc1ccc(C#N)cc1)CC(C)C` (mixture of isomers), the “growth inhibition (GI)” value in test [1] is “Active”. Moreover, the ED90 in test [2] came to 16 gAi/ha.

In the case of `CC(Cl)/C=C/C(=O)N(Cc1ccc(Cl)cc1OS(C)(=O)=O)CC(C)C` (racemic), the “growth inhibition (GI)” value in test [1] was “Active”. In addition, the ED90 in test [2] came to 500 gAi/ha.

For the compound `CC(Cl)/C=C/C(=O)N(Cc1ccc(C=O)cc1)CC(C)C` (racemic), in test [1], the “growth inhibition (GI)” value is “Active”. Further, in test [2], the ED90 turned out to be 1000 gAi/ha.

In the case of `CCCOCCN(C(=O)CCl)c1c(CC)cccc1CC`, the “growth inhibition (GI)” value in test [4] is “Active”.

Regarding `CCCC(Cl)/C=C/C(=O)N(Cc1ccc(Cl)cc1)CC(C)C` (racemic), the ED90 in test [2] amounted to 500 gAi/ha.

For the compound `CCCCCCC(Br)/C=C/C(=O)N(Cc1ccc(Cl)cc1)CC(C)C` (racemic), in test [2], the ED90 was determined as 5000 gAi/ha.

Take `CC(Br)/C=C/C(=O)N(Cc1ccc(Cl)cc1)CC(C)C` (racemic): in test [1], the “growth inhibition (GI)” value is “Active”. Also, the ED90 in test [2] is reported as 125 gAi/ha.

As for `CCCCN(Cc1ccc(Cl)cc1)C(=O)/C=C/C(C)Cl` (racemic), in test [1], the “growth inhibition (GI)” value was “Active”. The ED90 in test [2] was determined as 31 gAi/ha.

For `CCCCC(Br)/C=C/C(=O)N(Cc1ccc(Cl)cc1)CC(C)C` (racemic), in test [2], the ED90 worked out at 2500 gAi/ha.

With `CC(Cl)/C=C/C(=O)N(Cc1ccc(Cl)c([N+](=O)[O-])c1)CC(C)C` (racemic), the “growth inhibition (GI)” value in test [1] is “Active”. Besides, the ED90 in test [2] stood at 31 gAi/ha.

For `CC(Cl)/C=C/C(=O)N(Cc1ccc(Cl)c(OS(C)(=O)=O)c1)CC(C)C` (racemic), the “growth inhibition (GI)” value in test [1] is “Active”. In addition, the ED90 in test [2] was 31 gAi/ha.

As to `CC(Cl)/C=C/C(=O)N(Cc1cc(Cl)ccc1OS(C)(=O)=O)CC(C)C` (racemic), the “growth inhibition (GI)” value in test [1] is “Active”. Also, the ED90 in test [2] is recorded as greater than 1000 gAi/ha.

As for `COc1cc(Oc2ccc(Cl)cc2Cl)ccc1[N+](=O)[O-]` [CHLOMETHOXYFEN], the ED90 in test [2] amounted to 250 gAi/ha.

Regarding `CC(C)CN(Cc1ccc(Cl)cc1)C(=O)/C=C/C(Br)C(C)C` (racemic), the ED90 in test [2] came out at 250 gAi/ha.

For `CCCN(Cc1ccc(Cl)cc1)C(=O)/C=C/C(C)Cl` (racemic), the “growth inhibition (GI)” value in test [1] was “Active”. Further, the ED90 in test [2] was determined as 125 gAi/ha.

`CC(Cl)/C=C/C(=O)N(Cc1ccccc1)CC(C)C` (stereo not given): the “growth inhibition (GI)” value in test [1] is “Active”. Besides, the ED90 in test [2] turned out to be 125 gAi/ha.

On to `CCN(Cc1ccc(Cl)cc1)C(=O)/C=C/C(C)Cl` (racemic), for which, in test [1], the “growth inhibition (GI)” value was “Active”. Besides, the ED90 in test [2] was found to be 250 gAi/ha.

`CC(Cl)/C=C/C(=O)N(Cc1ccccc1C#N)CC(C)C` (racemic): the “growth inhibition (GI)” value in test [1] is “Active”. Moreover, the ED90 in test [2] is 250 gAi/ha.

For `Cc1ccc(CN(CC(C)C)C(=O)/C=C/C(C)Cl)cc1` (racemic), in test [1], the “growth inhibition (GI)” value is “Active”. Besides, in test [2], the ED90 came out at 125 gAi/ha.

`CCC(C)N(Cc1ccc(Cl)cc1)C(=O)/C=C/C(C)Cl` (racemic): the “growth inhibition (GI)” value in test [1] was “Active”. Further, the ED90 in test [2] is reported as 375 gAi/ha.

Take `CCOC(=O)c1ccc(CN(CC(C)C)C(=O)/C=C/C(C)Cl)cc1` (racemic): the “growth inhibition (GI)” value in test [1] was “Active”. The ED90 in test [2] is given as 1000 gAi/ha.

As to `C=CCN(Cc1ccc(Cl)cc1)C(=O)/C=C/C(C)Cl` (racemic), in test [1], the “growth inhibition (GI)” value was “Active”. In addition, the ED90 in test [2] was determined as 375 gAi/ha.

With `CC(Cl)/C=C/C(=O)N(Cc1ccc(Cl)cc1Cl)CC(C)C` (racemic), in test [1], the “growth inhibition (GI)” value was “Active”. Moreover, the ED90 in test [2] is recorded as 125 gAi/ha.

Take `CC(I)/C=C/C(=O)N(Cc1ccc(Cl)cc1)CC(C)C` (racemic): the “growth inhibition (GI)” value in test [1] is “Active”. The ED90 in test [2] is given as 250 gAi/ha.

As to `CC(Cl)/C=C/C(=O)N(Cc1ccc(Cl)cc1)C(C)(C)C` (racemic), in test [1], the “growth inhibition (GI)” value is “Active”. The ED90 in test [2] is on record as greater than 5000 gAi/ha.

Consider `CC(Cl)/C=C/C(=O)N(Cc1ccc(C#N)cc1Cl)CC(C)C` (mixture of isomers), for which, in test [1], the “growth inhibition (GI)” value was “Active”. Further, the ED90 in test [2] is reported as less than 16 gAi/ha.

Regarding `CC(Cl)/C=C/C(=O)N(Cc1ccc(S(C)(=O)=O)cc1)CC(C)C` (racemic), the “growth inhibition (GI)” value in test [1] is “Active”. Also, the ED90 in test [2] is given as greater than 1000 gAi/ha.

For `CC(O)/C=C/C(=O)N(Cc1ccc(Cl)cc1)CC(C)C` (racemic), the “growth inhibition (GI)” value in test [1] is “Active”. Also, the ED90 in test [2] is reported as greater than 5000 gAi/ha.

Take `COc1ccc(Cl)c(CN(CC(C)C)C(=O)/C=C/C(C)Cl)c1` (racemic): the “growth inhibition (GI)” value in test [1] was “Active”. The ED90 in test [2] was determined as 31 gAi/ha.

Regarding `CC(Cl)/C=C/C(=O)N(Cc1ccc([N+](=O)[O-])cc1)CC(C)C` (racemic), the “growth inhibition (GI)” value in test [1] was “Active”. Besides, in test [2], the ED90 came to 250 gAi/ha.

As to `CC(Cl)/C=C/C(=O)N(Cc1ccc(Cl)cc1)C1CCCCC1` (racemic), the “growth inhibition (GI)” value in test [1] was “Active”. In addition, the ED90 in test [2] is 31 gAi/ha.

For the compound `CCC(Br)/C=C/C(=O)N(Cc1ccc(Cl)cc1)CC(C)C` (racemic), the ED90 in test [2] is 125 gAi/ha.

Regarding `CC(C)CN(Cc1ccc(Cl)cc1)C(=O)/C=C/CBr`, the ED90 in test [2] is given as greater than 4000 gAi/ha.

Source of the values: ChEMBL document CHEMBL3046755, “Synthesis and Herbicidal Activity of N-Alkyl-N-(substituted benzyl)-4-halo-2-alkenamides” (1999).
